Holding throughout (type): biochemical
The target in one test is T1, JAK3 (Homo sapiens, UniProt P52333).
T1 construct: 5 μl of catalytic domain recombinant Kinase enzyme+Tyr peptide substrate (Invitrogen, CA); purchased Invitrogen
The experiment in a line: Z'-LYTE kinase assay JAK3. The method, then:
(§1) JAK and TYK2 tyrosine phosphorylation activity is measured using the Z′-LYTE™ Technology developed by Invitrogen Corporation (Carlsbad, Calif.). For JAK1, JAK2 and JAK3 the Z′-LYTE™ Kinase Assay Kit-Tyr6 Peptide (part number PV4122) was used. For TYK2 the Z′-LYTE™ Kinase Assay Kit-Tyr6 Peptide (part number PV3192) was used. The Z′-LYTE™ biochemical assay employs a fluorescence resonance energy transfer (FRET) coupled-enzyme format and is based on the differential sensitivity of phosphorylated and non-phosphorylated peptides to proteolitic cleavage. The assay uses a synthetic peptide substrate that is labelled with a donor fluorophore (coumarin) and an acceptor fluorophore (fluorescein) that make up a FRET pair. In the primary reaction (the Kinase Reaction), the kinase transfers the γ-phosphate of ATP to a single tyrosine residue on the substrate, while the presence of a kinase inhibitor in the primary reaction suppresses phosphorylation. In the secondary reaction (the Development Reaction), a site-specific protease (the Development Reagent) is added. The development buffer quenches the Kinase Reaction, while the protease recognizes and cleaves non-phosphorylated Z′-LYTE™ peptide substrate. Cleavage disrupts FRET between the donor and acceptor fluorophores on the non-phosphoryleted substrate, while uncleaved, phosphorylated substrate maintains FRET.
(§2) To test the ability of candidate molecules to inhibit JAK tyrosine phosphorylation activity, molecules are reconstituted in 100% DMSO and serially diluted 1:10 in polypropylene v-bottom microtiter plates. The candidate molecules are then diluted 1:25 into kinase buffer and 2.5 μl transferred into duplicate wells of a 384 well low volume black microtiter assay plate (Corning, USA). The final DMSO concentration in the assay is 1%. The kinase reaction contains 2.5 μl of a candidate molecule, 5 μl of catalytic domain recombinant Kinase enzyme+Tyr peptide substrate (Invitrogen, CA) and 2.5 μl ATP (Invitrogen, CA). The kinase reaction is allowed to procede for 1 hour at room temperature. The protease reaction is initiated by the addition of 5 μl Development Reagent (Invitrogen, CA). After 1 hour incubation at room temperature the fluorescence is measured using a FlexStation plate reader (Molecular Devices, Sunnyvale, Calif.).

The next test deals with T2, JAK1 (Homo sapiens, UniProt P23458).
T2 construct: 5 μl of catalytic domain recombinant Kinase enzyme+Tyr peptide substrate (Invitrogen, CA); purchased Invitrogen
As to the kind of experiment: Z'-LYTE kinase assay JAK1. The method, then:
as §1, §2

The next test deals with T3, JAK2 (Homo sapiens, UniProt O60674).
T3 construct: 5 μl of catalytic domain recombinant Kinase enzyme+Tyr peptide substrate (Invitrogen, CA); purchased Invitrogen
The experiment in a line: Z'-LYTE kinase assay JAK2. The method, then:
as §1, §2

By IC50 is commonly meant the concentration at which inhibition is half-maximal. High values mean weaker potency in that assay, low ones greater potency in that assay.

Molecules are shown by their SMILES.

T2 sequence (P23458 875-1153 limits assumed): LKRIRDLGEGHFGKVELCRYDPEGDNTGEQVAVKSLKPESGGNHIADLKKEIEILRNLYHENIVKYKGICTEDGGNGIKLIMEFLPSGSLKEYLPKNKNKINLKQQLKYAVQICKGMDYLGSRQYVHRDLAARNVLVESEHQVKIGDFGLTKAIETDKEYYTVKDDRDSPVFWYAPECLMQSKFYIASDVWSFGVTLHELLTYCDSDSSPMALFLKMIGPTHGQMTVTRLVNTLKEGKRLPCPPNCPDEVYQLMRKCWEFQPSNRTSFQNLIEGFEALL
T1 sequence (P52333 822-1111 limits assumed): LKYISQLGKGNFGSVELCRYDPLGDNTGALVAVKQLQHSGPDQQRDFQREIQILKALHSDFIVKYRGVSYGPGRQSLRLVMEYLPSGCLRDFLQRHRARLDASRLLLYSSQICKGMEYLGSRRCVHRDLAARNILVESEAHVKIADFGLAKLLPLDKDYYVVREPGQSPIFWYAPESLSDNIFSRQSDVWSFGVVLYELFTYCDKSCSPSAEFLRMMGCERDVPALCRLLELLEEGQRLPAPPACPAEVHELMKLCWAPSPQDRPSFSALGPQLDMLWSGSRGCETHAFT
T3 sequence (O60674 849-1124 limits assumed): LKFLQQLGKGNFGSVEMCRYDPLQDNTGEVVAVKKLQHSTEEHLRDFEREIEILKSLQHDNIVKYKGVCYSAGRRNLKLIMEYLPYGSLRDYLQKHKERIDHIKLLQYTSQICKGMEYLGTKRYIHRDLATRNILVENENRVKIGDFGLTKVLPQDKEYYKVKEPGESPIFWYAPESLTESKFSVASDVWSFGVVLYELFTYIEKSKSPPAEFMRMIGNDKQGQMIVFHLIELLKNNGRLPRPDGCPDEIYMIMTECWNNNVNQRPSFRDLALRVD

Consider `CN(C)C(=O)c1ccc(Nc2cc(NCc3ccccc3)c(C(=O)N(C)C)cn2)cc1` [Example 30, 4-(benzylamino)-6-(4-(dimethylcarbamoyl)phenylamino)-N,N-dimethylnicotinamide], for which the IC50 at JAK3, on JAK1 and against JAK2 was over 1 µM in each case.

As to `COc1ccc(Nc2cc(NCC3CCCC3)c(C(N)=O)cn2)cc1` [Example 32, 4-(cyclopentylmethylamino)-6-(4-methoxyphenylamino)nicotinamide], the IC50 against JAK3 was 0.1 to 1 µM; against JAK1, over 1 µM; against JAK2, over 1 µM.

Regarding `COc1ccc(Nc2cc(Nc3ccc(C)cc3)c(C(N)=O)cn2)cc1` [Example 33, 6-(4-methoxyphenylamino)-4-(p-tolylamino)nicotinamide], the IC50 against JAK3, against JAK1 and against JAK2 was over 1 µM each time.

As to `COc1ccc(Nc2cc(Nc3ccc(OC)cc3)c(C(N)=O)cn2)cc1` [Example 34, 4,6-bis(4-methoxyphenylamino)nicotinamide], the IC50 against JAK3, against JAK1 and against JAK2 was over 1 µM throughout.

In the case of `COc1ccc(Nc2cc(NCC3CCN(C(C)=O)CC3)c(C(N)=O)cn2)cc1` [Example 35, 4-((1-acetylpiperidin-4-yl)methylamino)-6-(4-methoxyphenylamino)nicotinamide], the concentration for half-maximal inhibition (IC50) against JAK3, at JAK1 and at JAK2 was over 1 µM throughout.

With `COc1ccc(Nc2cc(N[C@H]3CCCN(C(C)=O)C3)c(C(N)=O)cn2)cc1` [Example 36, (S)-4-(1-acetylpiperidin-3-ylamino)-6-(4-methoxyphenylamino)nicotinamide], the IC50 against JAK3, against JAK1 and at JAK2 was over 1 µM throughout.

For the molecule `COc1ccc(Nc2cc(N[C@@H]3CCCN(C(C)=O)C3)c(C(N)=O)cn2)cc1` [Example 37, (R)-4-(1-acetylpiperidin-3-ylamino)-6-(4-methoxyphenylamino)nicotinamide], the IC50 against JAK3, on JAK1 and against JAK2 was over 1 µM in each case.

As for `NC(=O)c1cnc(Nc2ccc(C(=O)N3CCOCC3)cc2)cc1NCC1CCCC1` [Example 42, 4-(cyclopentylmethylamino)-6-(4-(morpholine-4-carbonyl)phenylamino)nicotinamide], the IC50 on JAK3 is 0.01 to 0.1 µM; against JAK1 it was 0.1 to 1 µM; on JAK2, 0.1 to 1 µM.

As for `CC(=O)N1CCC(CNc2cc(Nc3ccc(C(=O)N4CCCC4)cc3)ncc2C(N)=O)CC1` [Example 43, 4-((1-acetylpiperidin-4-yl)methylamino)-6-(4-(pyrrolidine-1-carbonyl)phenylamino)nicotinamide], the IC50 at JAK3 is 0.1 to 1 µM; against JAK1, over 1 µM; against JAK2, over 1 µM.

In the case of `CC(=O)N1CCC(CNc2cc(Nc3ccc(C(=O)N4CCOCC4)cc3)ncc2C(N)=O)CC1` [Example 44, 4-((1-acetylpiperidin-4-yl)methylamino)-6-(4-(morpholine-4-carbonyl)phenylamino)nicotinamide], the IC50 at JAK3, on JAK1 and on JAK2 was over 1 µM each time.

Consider `NC(=O)c1cnc(Nc2ccc(S(=O)(=O)N3CCC3)cc2)cc1NCc1ccccc1` [Example 47, 6-(4-(azetidin-1-ylsulfonyl)phenylamino)-4-(benzylamino)nicotinamide], for which the IC50 was 0.1 to 1 µM against JAK3, over 1 µM on JAK1 and over 1 µM on JAK2.

As to `NC(=O)c1cnc(Nc2ccc(C(=O)N3CCC3)cc2)cc1NCC1CCCC1` [Example 48, 6-(4-(azetidine-1-carbonyl)phenylamino)-4-(cyclopentylmethylamino)nicotinamide], the results for the IC50 against JAK3, on JAK1 and against JAK2 were 0.01 to 0.1 µM, 0.1 to 1 µM and 0.1 to 1 µM, respectively.

As for `NC(=O)c1cnc(Nc2ccc(S(=O)(=O)N3CCC3)cc2)cc1NCC1CCCC1` [Example 49, 6-(4-(azetidin-1-ylsulfonyl)phenylamino)-4-(cyclopentylmethylamino)nicotinamide], the IC50 at JAK3 is 0.1 to 1 µM; at JAK1 it was over 1 µM; at JAK2, over 1 µM.

Consider `CC(=O)N1CCC(CNc2cc(Nc3ccc(C(=O)N4CCC4)cc3)ncc2C(N)=O)CC1` [Example 50, 4-((1-acetylpiperidin-4-yl)methylamino)-6-(4-(azetidine-1-carbonyl)phenylamino)nicotinamide], for which the IC50 against JAK3, at JAK1 and against JAK2 was over 1 µM each time.

In the case of `COCC(=O)N1CCC[C@@H](CNc2cc(Nc3ccc(OC)cc3)ncc2C(N)=O)C1` [Example 51, (S)-4-((1-(2-methoxyacetyl)piperidin-3-yl)methylamino)-6-(4-methoxyphenylamino)nicotinamide], the half-maximal inhibitory concentration (IC50) against JAK3 is 0.1 to 1 µM; against JAK1, over 1 µM; at JAK2, over 1 µM.

Turning to `COC(=O)N1CCC[C@@H](CNc2cc(Nc3ccc(OC)cc3)ncc2C(N)=O)C1` [Example 52, (S)-methyl 3-((5-carbamoyl-2-(4-methoxyphenylamino)pyridin-4-ylamino)methyl)piperidine-1-carboxylate], the IC50 was 0.1 to 1 µM on JAK3, over 1 µM against JAK1 and over 1 µM against JAK2.

With `COc1ccc(Nc2cc(NC[C@@H]3CCCN(C(=O)N(C)C)C3)c(C(N)=O)cn2)cc1` [Example 53, (S)-4-((1-(dimethylcarbamoyl)piperidin-3-yl)methylamino)-6-(4-methoxyphenylamino)nicotinamide], the IC50 against JAK3 is 0.1 to 1 µM; at JAK1, over 1 µM; at JAK2, over 1 µM.

For `COc1ccc(Nc2cc(NC[C@H]3CCCN(C(C)=O)C3)c(C(N)=O)cn2)cc1` [Example 54], the values for the IC50 at JAK3, against JAK1 and against JAK2 were 0.01 to 0.1 µM, over 1 µM and 0.1 to 1 µM, respectively.

`COCC(=O)N1CCC[C@H](CNc2cc(Nc3ccc(OC)cc3)ncc2C(N)=O)C1` [Example 55, (R)-4-((1-(2-methoxyacetyl)piperidin-3-yl)methylamino)-6-(4-methoxyphenylamino)nicotinamide]: the half-inhibitory concentration (IC50) at JAK3 was 0.01 to 0.1 µM; at JAK1, over 1 µM; at JAK2 it was over 1 µM.

Turning to `COC(=O)N1CCC[C@H](CNc2cc(Nc3ccc(OC)cc3)ncc2C(N)=O)C1` [Example 56, (R)-methyl 3-((5-carbamoyl-2-(4-methoxyphenylamino)pyridin-4-ylamino)methyl)piperidine-1-carboxylate], the IC50 was 0.1 to 1 µM on JAK3, over 1 µM against JAK1 and over 1 µM on JAK2.

For `COc1ccc(Nc2cc(NC[C@H]3CCCN(S(C)(=O)=O)C3)c(C(N)=O)cn2)cc1` [Example 57, (R)-6-(4-methoxyphenylamino)-4-((1-(methylsulfonyl)piperidin-3-yl)methylamino)nicotinamide], the IC50 at JAK3 is 0.01 to 0.1 µM; against JAK1, over 1 µM; against JAK2, 0.1 to 1 µM.

Consider `CN1C(=O)COc2ccc(Nc3cc(NCc4ccccc4)c(C(N)=O)cn3)cc21` [Example 85, 4-(benzylamino)-6-(4-methyl-3-oxo-3,4-dihydro-2H-benzo[b][1,4]oxazin-6-ylamino)nicotinamide], for which the figures for the IC50 at JAK3, on JAK1 and against JAK2 were 0.01 to 0.1 µM, over 1 µM and over 1 µM, respectively.

`NC(=O)c1cnc(Nc2ccc3ncccc3c2)cc1NCc1ccccc1` [Example 86, 4-(benzylamino)-6-(quinolin-6-ylamino)nicotinamide]: the IC50 is 0.01 to 0.1 µM against JAK3, over 1 µM against JAK1 and over 1 µM on JAK2.

As for `NC(=O)c1cnc(Nc2ccc3cccnc3c2)cc1NCc1ccccc1` [Example 87, 4-(benzylamino)-6-(quinolin-7-ylamino)nicotinamide], the IC50 on JAK3 is 0.1 to 1 µM; against JAK1, over 1 µM; at JAK2, over 1 µM.

`NC(=O)c1cnc(Nc2ccc3cnccc3c2)cc1NCc1ccccc1` [Example 88, 4-(benzylamino)-6-(isoquinolin-6-ylamino)nicotinamide]: the values for the IC50 against JAK3, against JAK1 and on JAK2 were 0.01 to 0.1 µM, over 1 µM and over 1 µM, respectively.

Turning to `NC(=O)c1cnc(Nc2ccc3ccncc3c2)cc1NCc1ccccc1` [Example 89, 4-(benzylamino)-6-(isoquinolin-7-ylamino)nicotinamide], the IC50 was 0.1 to 1 µM on JAK3, over 1 µM against JAK1 and over 1 µM against JAK2.

`NC(=O)c1cnc(Nc2ccc3ncsc3c2)cc1NCc1ccccc1` [Example 90, 6-(benzo[d]thiazol-6-ylamino)-4-(benzylamino)nicotinamide]: the values for the IC50 on JAK3, on JAK1 and against JAK2 were 0.01 to 0.1 µM, over 1 µM and over 1 µM, respectively.

Values taken from patent publication US20150353495A1 (PORTOLA PHARMACEUTICALS, INC., priority 2010, published 2015).
